Results on one molecule are retold here after patent publication US20150283239A1, “GRAPHENE DERIVATIVE-BASED COMPOSITION FOR DRUG DELIVERY AND PREPARATION METHOD THEREOF” (Research & Business Foundation SUNGKYUNKWAN UNIVERSITY, priority 2014, published 2015).

Assay [1] has as its system HCT116 cells. Put plainly: In vitro cytotoxicity, MTT analysis. The format is cell-based, Human. To be noted: HCT116, 100 μg/mL, 24 hours. The procedure: Human colon cancer cells (HCT116) were maintained in a Dulbecco's modified Eagle medium (DMEM), and supplemented with 10% fetal bovine serum (FBS) and antibiotics (10,000 μg/mL streptomycin and 10,000 unit/mL penicillin) at 37° C. in a humidified atmosphere containing 5% CO2(v/v).
In vitro cytotoxicity was measured by using standard colorimetric 3-(4,5-dimethylthiazol-2-yl)-2,5-diphenyl tetrazolium bromide (MTT) analysis. For the MTT analysis, HCT116 cells were seeded in a 96-well cell-culture plate at 1×10^4/well, and cultured for 12 hours at 37° C. under 5% CO2. Thereafter, the HCT116 cells were cultured for 24 hours by using various concentrations ([…], 12.5, 25, 50, and 100 μg/mL) of GO, DGO, GQD, Cur, GO-Cur, DGO-Cur, and GQD-Cur. Next, 20 μl stock MTT (5 mg/mL) was added to each of the cells, and the cells were cultured under 5% CO2 at 37° C. for 4 hours. After the culture for additional 4 hours, the resulting formazan crystals were dissolved in dimethyl sulfoxide (DMED, 100 μl), and absorbance intensity was measured by a microplate reader at 570 nm. All the experiments were conducted in quadruplicate, and the relative cell viability (%) was expressed as a percentage relative to untreated control cells.

Assay [2] relates to HCT116 tumors. The experiment in a line: In vivo drug delivery, tumor volume in HCT116 xenograft mice. The note with it: 14 days, intratumoral single dose 10 mg/kg. Also noted: species or system Balb/c female nude mice. The method, then: Six (6) to seven (7)-week-old Balb/c female nude mice (weight of 21 g to 25 g) were purchased from Orient Bio Inc., (Seoul, Korea), and were maintained in a 12-hour light/12-hour darkness cycle (12:12LD) at a temperature of 22° C. to 24° C., in humidity of 40% to 60%, and with food and water ad libitum. HCT116 was trypsinized, washed twice with serum-free DMEM, and dispersed at a density of 1×10^7 cells/mL PBS. […] of the dispersed cells was subcutaneously injected into the right back region of the mice. After the tumor size reached about 150 mm^3, the mice were randomly divided into six (6) groups depending on differences in the minimum weight and tumor size. The mice were intratumorally injected with physiological saline, DGO, GQD, Cur, DGO-Cur, and GQD-Cur dispersions at a total dose of 10 mg/kg. The tumor size of each of the groups was measured by a caliper, and the tumor volume was calculated by using the following equation: tumor volume=ab^2×0.5236, where ‘a’ is the maximum diameter of tumor, and ‘b’ is the minimum diameter of tumor. Relative tumor volumes were calculated as V/V0 (V0 was the tumor volume when the treatment was initiated).
Experimental female nude mice bearing subcutaneous xenografts were divided into groups and intratumorally injected with a single dose of each of physiological saline, pure DGO and GQDs, free Cur, or DGO-Cur and GQD-Cur composites. […]

For the molecule `COc1cc(/C=C/C(=O)CC(=O)/C=C/c2ccc(O)c(OC)c2)ccc1O` [Cur, Curcumin], in assay [1], the cancer cells dead result is “about 70%”. In addition, in assay [2], the “inhibition of tumor proliferation” value is reported as “tumor proliferation was initially inhibited to some extent”.
